Laboratory results reported in ChEMBL document CHEMBL3885881, “DrugMatrix”.

Species: Rattus norvegicus
Assay: DrugMatrix - Regimen: Daily Repeat
Assay type: toxicity, organism-based, Sprague-Dawley
Design: regimen Daily Repeat, gender Male, age 6-8 weeks
Conditions: in vivo, […], dose level High
[1] = ip, 2 mg/kg, tissue Blood, route intraperitoneal, time 28 day, vehicle 100 % SALINE
[2] = ip, 2 mg/kg, tissue Plasma, route intraperitoneal, time 14 day, vehicle 100 % SALINE
[3] = ip, 2 mg/kg, tissue Plasma, route intraperitoneal, time 28 day, vehicle 100 % SALINE
[4] = po, 66 mg/kg, 72 h, tissue Blood, route oral GAVAGE, time 3 day
[5] = po, 66 mg/kg, 72 h, tissue Plasma, route oral GAVAGE, time 3 day
[6] = po, 66 mg/kg, 120 h, tissue Blood, route oral GAVAGE, time 5 day

Substance: CADMIUM DICHLORIDE
- NEUTROPHIL [1]: 24.62%
- PLATELET COUNT [1]: 1656.44 x10E3/uL
- ALANINE AMINOTRANSFERASE [2]: 35.4 u/L
- ALBUMIN [2]: 3.24 G/DL
- ALKALINE PHOSPHATASE [2]: 169.6 u/L
- ASPARTATE AMINOTRANSFERASE [2]: 182.2 u/L
- BLOOD UREA NITROGEN [2]: 23.8 mg/dL
- CHLORIDE [2]: 109.2 MEQ/L
- CHOLESTEROL [2]: 58.2 mg/dL
- CREATINE PHOSPHOKINASE [2]: 323 u/L
- CREATININE [2]: 0.3 mg/dL
- GLUCOSE [2]: 101 mg/dL
- LACTATE DEHYDROGENASE [2]: 321.4 u/L
- LIPASE [2]: 87.6 u/L
- PHOSPHORUS [2]: 10.28 mg/dL
- POTASSIUM [2]: 6.42 MEQ/L
- TOTAL BILIRUBIN [2]: 0.26 mg/dL
- TOTAL PROTEIN [2]: 5.94 G/DL
- URIC ACID [2]: 2.08 mg/dL
- ALANINE AMINOTRANSFERASE [3]: 39.44 u/L
- ALKALINE PHOSPHATASE [3]: 111 u/L
- ASPARTATE AMINOTRANSFERASE [3]: 167.44 u/L
- BLOOD UREA NITROGEN [3]: 19.67 mg/dL
- CHLORIDE [3]: 108.89 MEQ/L
- CHOLESTEROL [3]: 51.67 mg/dL
- CREATININE [3]: 0.44 mg/dL
- GLUCOSE [3]: 106.78 mg/dL
- LACTATE DEHYDROGENASE [3]: 230.56 u/L
- LIPASE [3]: 45.56 u/L
- POTASSIUM [3]: 6.7 MEQ/L
- SODIUM [3]: 151 MEQ/L
- TOTAL BILIRUBIN [3]: 0.28 mg/dL
- TOTAL PROTEIN [3]: 6.61 G/DL
- URIC ACID [3]: 1.71 mg/dL
- ABSOLUTE BASOPHIL [4]: 0 CELLS/uL
- ABSOLUTE EOSINOPHIL [4]: 54 CELLS/uL
- ABSOLUTE LYMPHOCYTE [4]: 13921.33 CELLS/uL
- ABSOLUTE MONOCYTE [4]: 108.67 CELLS/uL
- ABSOLUTE SEGMENTED NEUTROPHIL [4]: 2549.33 CELLS/uL
- BASOPHIL [4]: 0%
- EOSINOPHIL [4]: 0.33%
- ERYTHROCYTE COUNT [4]: 5.45 x10E6/uL
- HEMATOCRIT [4]: 35.37%
- HEMOGLOBIN [4]: 13.67 G/DL
- LEUKOCYTE COUNT [4]: 16.63 x10E3/uL
- LYMPHOCYTE [4]: 83.67%
- MEAN CORPUSCULAR HEMOGLOBIN [4]: 25.13 pg
- MEAN CORPUSCULAR HEMOGLOBIN CONCENTRATION [4]: 38.63 G/DL
- MEAN CORPUSCULAR VOLUME [4]: 64.97 fL
- MONOCYTE [4]: 0.67%
- NEUTROPHIL [4]: 15.33%
- NUCLEATED RED BLOOD CELLS [4]: 0 /100WBC
- PLATELET COUNT [4]: 1218.67 x10E3/uL
- ALANINE AMINOTRANSFERASE [5]: 57.67 u/L
- ALBUMIN [5]: 4.1 G/DL
- ALKALINE PHOSPHATASE [5]: 436 u/L
- ASPARTATE AMINOTRANSFERASE [5]: 100 u/L
- BLOOD UREA NITROGEN [5]: 12.33 mg/dL
- CARBON DIOXIDE [5]: 25 mmol/L
- CHOLESTEROL [5]: 60.33 mg/dL
- CREATINE PHOSPHOKINASE [5]: 279.67 u/L
- CREATININE [5]: 0.17 mg/dL
- LACTATE DEHYDROGENASE [5]: 310 u/L
- LIPASE [5]: 11.33 u/L
- PHOSPHORUS [5]: 12.93 mg/dL
- POTASSIUM [5]: 7.2 MEQ/L
- TOTAL BILIRUBIN [5]: 0.2 mg/dL
- TOTAL PROTEIN [5]: 5.77 G/DL
- ABSOLUTE BASOPHIL [6]: 0 CELLS/uL
- ABSOLUTE EOSINOPHIL [6]: 0 CELLS/uL
- ABSOLUTE LYMPHOCYTE [6]: 13248 CELLS/uL
- ABSOLUTE MONOCYTE [6]: 120 CELLS/uL
- ABSOLUTE SEGMENTED NEUTROPHIL [6]: 1432 CELLS/uL
- BASOPHIL [6]: 0%
- EOSINOPHIL [6]: 0%
- ERYTHROCYTE COUNT [6]: 5.79 x10E6/uL
- HEMATOCRIT [6]: 35.4%
- HEMOGLOBIN [6]: 14.15 G/DL
- LEUKOCYTE COUNT [6]: 14.8 x10E3/uL
- LYMPHOCYTE [6]: 88%
- MEAN CORPUSCULAR HEMOGLOBIN [6]: 24.55 pg
- MEAN CORPUSCULAR HEMOGLOBIN CONCENTRATION [6]: 39.95 G/DL
- MEAN CORPUSCULAR VOLUME [6]: 61.35 fL
- MONOCYTE [6]: 1%
